{"source": "patent US20040204482A1", "about": "“Extended release oral dosage form” (priority 2001, published 2004)", "origin": "cited, not measured here", "details": "in vivo"}
{"smiles": "NC(=O)c1ccc(F)c2c1C[C@@H](N(C1CCC1)C1CCC1)CO2.O.O=C(O)C(O)C(O)C(=O)O", "note": "[(R)-3-N,N-dicyclobutylamino-8-fluoro-3,4-dihydro-2H-1-benzopyran-5-carboxamide hydrogen (2R,3R)-tartrate monohydrate]", "values": [{"measurement": "plasma elimination half-life, t1/2", "result": 1.5, "unit": "h"}]}
